Measured values reported in patent US20250352520A1, “USE OF DEXPRAMIPEXOLE FOR THE TREATMENT OF EOSINOPHILIC COPD” (Areteia Therapeutics, Inc., priority 2024, published 2025).
Read-outs that look alike come from different tables or passages of the source.

What was measured:
[1] = Phase III, participants with ALS; cited from earlier work
[2] = for SGRQ-C Questionnaire - Total Score, CFB (Change from baseline), Max / SGRQ-C Questionnaire - Total Score, CFB (Change from baseline), Mean ± SD / SGRQ-C Questionnaire - Total Score, CFB (Change from baseline), Median / SGRQ-C Questionnaire - Total Score, CFB (Change from baseline), Min / SGRQ-C Questionnaire - Total Score, CFB (Change from baseline), Q1 / SGRQ-C Questionnaire - Total Score, CFB (Change from baseline), Q3 / SGRQ-C Questionnaire - Total Score, Observed, Max / SGRQ-C Questionnaire - Total Score, Observed, Mean ± SD / SGRQ-C Questionnaire - Total Score, Observed, Median / SGRQ-C Questionnaire - Total Score, Observed, Min / SGRQ-C Questionnaire - Total Score, Observed, Q1 / SGRQ-C Questionnaire - Total Score, Observed, Q3: Week 16, 150 mg BID
Text: The SGRQ-C questionnaire was developed from the SGRQ which was designed to measure health impairment in patients with asthma and COPD. The SGRQ-C is a shorter version (40 items compared with 50 items in SGRQ) derived from the original version following detailed analysis of data from large studies in COPD. The FDA has stated that the SGRQ-C is acceptable for use as either a co-primary endpoint or as a secondary endpoint providing supporting evidence of efficacy in a clinical trial. In this study, assessment of SGRQ-C was a secondary endpoint.
The SGRQ-C total score is made up of three components: (1) symptoms frequency and severity of symptoms; (2) activity effect of disease on common daily physical activities; and (3) impacts psychosocial effects of the disease.
The threshold for a clinically significant difference between groups of participants and for changes within groups of participants was four units.

[3] = for COPD Assessment - Total Score, CFB (Change from baseline), Max / COPD Assessment - Total Score, CFB (Change from baseline), Mean ± SD / COPD Assessment - Total Score, CFB (Change from baseline), Median / COPD Assessment - Total Score, CFB (Change from baseline), Min / COPD Assessment - Total Score, CFB (Change from baseline), Q1 / COPD Assessment - Total Score, CFB (Change from baseline), Q3 / COPD Assessment - Total Score, Observed, Max / COPD Assessment - Total Score, Observed, Mean ± SD / COPD Assessment - Total Score, Observed, Median / COPD Assessment - Total Score, Observed, Min / COPD Assessment - Total Score, Observed, Q1 / COPD Assessment - Total Score, Observed, Q3: Week 16, 150 mg BID
Text: The CAT is a participant-completed instrument that can quantify the impact of COPD on the participant's health. It complements existing approaches to assessing COPD, such as FEV1 measurement.
The CAT has a scoring range of 0-40 (0 to 5 on 8 questions) with higher numbers indicating more severe symptoms.

[4] = <50% AEC reduction at Week 16 (N = 4)
[5] = >=50% AEC reduction at Week 16 (N = 3)

In the case of `CCCN[C@@H]1CCc2nc(N)sc2C1` [Dexpramipexole, (6R)-2-amino-4,5,6,7-tetrahydro-6-(propylamino)benzothiazole], the “absolute eosinophil count (AEC)” value [1] is listed as “substantial, durable, and targeted reduction”, the “efficacy in ALS” value [1] is listed as “failed to demonstrate efficacy” and the “SGRQ-C total score, decrease compared to baseline” value ([2]; AECR≥0.5 patients, 16 weeks) is listed as 12.08 points. For the same molecule, the “SGRQ-C Questionnaire - Total Score, CFB (Change from baseline), Max” value [2, 4] was 3.9, the “SGRQ-C Questionnaire - Total Score, CFB (Change from baseline), Mean ± SD” value [2, 4] was −4.15 ± 6.817 and the “SGRQ-C Questionnaire - Total Score, CFB (Change from baseline), Median” value [2, 4] was −5.18. The “SGRQ-C Questionnaire - Total Score, CFB (Change from baseline), Min” value [2, 4] was −10.1, the “SGRQ-C Questionnaire - Total Score, CFB (Change from baseline), Q1” value [2, 4] was −9.8 and the “SGRQ-C Questionnaire - Total Score, CFB (Change from baseline), Q3” value [2, 4] was 1.5. The “SGRQ-C Questionnaire - Total Score, Observed, Max” value [2, 4] was 63.2, the “SGRQ-C Questionnaire - Total Score, Observed, Mean ± SD” value [2, 4] was 45.45 ± 19.893 and the “SGRQ-C Questionnaire - Total Score, Observed, Median” value [2, 4] was 50.64. The “SGRQ-C Questionnaire - Total Score, Observed, Min” value [2, 4] was 17.3, the “SGRQ-C Questionnaire - Total Score, Observed, Q1” value [2, 4] was 32.1 and the “SGRQ-C Questionnaire - Total Score, Observed, Q3” value [2, 4] was 58.8. For the same molecule, the “SGRQ-C Questionnaire - Total Score, CFB (Change from baseline), Max” value [2, 5] was −6.2, the “SGRQ-C Questionnaire - Total Score, CFB (Change from baseline), Mean ± SD” value [2, 5] was −12.08 ± 5.544 and the “SGRQ-C Questionnaire - Total Score, CFB (Change from baseline), Median” value [2, 5] was −12.76. For the same molecule, the “SGRQ-C Questionnaire - Total Score, CFB (Change from baseline), Min” value [2, 5] was −17.2, the “SGRQ-C Questionnaire - Total Score, CFB (Change from baseline), Q1” value [2, 5] was −17.2 and the “SGRQ-C Questionnaire - Total Score, CFB (Change from baseline), Q3” value [2, 5] was −6.2. The “SGRQ-C Questionnaire - Total Score, Observed, Max” value [2, 5] was 45.0, the “SGRQ-C Questionnaire - Total Score, Observed, Mean ± SD” value [2, 5] was 40.39 ± 7.250 and the “SGRQ-C Questionnaire - Total Score, Observed, Median” value [2, 5] was 44.09. The “SGRQ-C Questionnaire - Total Score, Observed, Min” value [2, 5] was 32.0, the “SGRQ-C Questionnaire - Total Score, Observed, Q1” value [2, 5] was 32.0 and the “SGRQ-C Questionnaire - Total Score, Observed, Q3” value [2, 5] was 45.0. For the same molecule, the “CAT total score, decrease compared to baseline” value ([3]; AECR≥0.5 patients, week 16) was 8.7 points, the “COPD Assessment - Total Score, CFB (Change from baseline), Max” value [3, 4] was 0 and the “COPD Assessment - Total Score, CFB (Change from baseline), Mean ± SD” value [3, 4] was −1.8 ± 1.50. The “COPD Assessment - Total Score, CFB (Change from baseline), Median” value [3, 4] was −2.0, the “COPD Assessment - Total Score, CFB (Change from baseline), Min” value [3, 4] was −3 and the “COPD Assessment - Total Score, CFB (Change from baseline), Q1” value [3, 4] was −3. For the same molecule, the “COPD Assessment - Total Score, CFB (Change from baseline), Q3” value [3, 4] was −1, the “COPD Assessment - Total Score, Observed, Max” value [3, 4] was 24 and the “COPD Assessment - Total Score, Observed, Mean ± SD” value [3, 4] was 17.5 ± 8.27. The “COPD Assessment - Total Score, Observed, Median” value [3, 4] was 20.0, the “COPD Assessment - Total Score, Observed, Min” value [3, 4] was 6 and the “COPD Assessment - Total Score, Observed, Q1” value [3, 4] was 12. The “COPD Assessment - Total Score, Observed, Q3” value [3, 4] was 24, the “COPD Assessment - Total Score, CFB (Change from baseline), Max” value [3, 5] was −8 and the “COPD Assessment - Total Score, CFB (Change from baseline), Mean ± SD” value [3, 5] was −8.7 ± 1.15. The “COPD Assessment - Total Score, CFB (Change from baseline), Median” value [3, 5] was −8.0, the “COPD Assessment - Total Score, CFB (Change from baseline), Min” value [3, 5] was −10 and the “COPD Assessment - Total Score, CFB (Change from baseline), Q1” value [3, 5] was −10. For the same molecule, the “COPD Assessment - Total Score, CFB (Change from baseline), Q3” value [3, 5] was −8, the “COPD Assessment - Total Score, Observed, Max” value [3, 5] was 23 and the “COPD Assessment - Total Score, Observed, Mean ± SD” value [3, 5] was 16.3 ± 5.86. For the same molecule, the “COPD Assessment - Total Score, Observed, Median” value [3, 5] was 14.0, the “COPD Assessment - Total Score, Observed, Min” value [3, 5] was 12 and the “COPD Assessment - Total Score, Observed, Q1” value [3, 5] was 12. For the same molecule, the “COPD Assessment - Total Score, Observed, Q3” value [3, 5] was 23.
